Reference: article PMC11603770, “Validating anti-inflammatory and cytotoxic properties of Fagonia cretica L. through metabolic, in vitro, and in silico profiling” (BMC Complementary Medicine and Therapies, 2024)
Converted amounts (≈) assume the structure as drawn.

How the values were obtained:
Assay type in all cases: cell-based
[1] = tested on: nitric oxide formation by LPS-stimulated RAW 264.7 murine macrophage cells; experiment: Nitric oxide inhibitory assay (Griess nitrite assay); settings: Mus musculus, RAW264.7; LPS-stimulated RAW 264.7, 24 h
Procedure: RAW 264.7 murine macrophage cells were stimulated by LPS (Lipopolysaccharide) to produce inflammatory mediators as NO, the produced nitrite (NO2-) was measured using the Griess reagent, RAW 264.7 murine macrophage-like cells were grown in phenol red-free RPMI-1640 containing 10% FBS. Cells were incubated for 24 h with LPS ([…]) in the presence of different concentrations of the plant extract. Then 50 µl of supernatant from each well of cell culture was transferred into 96-well microplates and equal volume of Griess reagent (1% sulfanilamide, 0.1% N-(1-naphthyl)-ethylenediamine hydrochloride, 2.5% H3PO4) was then added to the supernatant at room temperature. The absorbance at 550 nm was determined in UV-Vis microplate reader after 10 min. The concentrations of nitrite were derived from regression analysis using serial dilutions of sodium nitrite as a standard. Percentage of inhibition was calculated based on the ability of the extract to inhibit nitric oxide formation by cells compared with the control (cells in the media without the extract containing triggering agents and DMSO), which was considered as 0% inhibition.

[2] = tested on: CACO2 cells (intestinal carcinoma cell line); experiment: MTT viability assay, CACO2; settings: Homo sapiens, Caco-2, 24 h
Procedure: The Cytotoxic activity was tested using the viability assay following the method reported by Mosmann, T., 1983 [21, 22]. HepG2 cells (liver carcinoma cell line), MCF-7cells (breast carcinoma cell line) and CACO2 cells (intestinal carcinoma cell line) (American Type Culture Collection ATCC, Rockville, MD) were applied through the tissue Culture Unit, the Egyptian Organization for Biological Products and Vaccines, Vacsera, Egypt. In brief, the tumor cell lines were suspended in medium at concentration 5 × 10^4 cell/ well in Corning® 96-well tissue culture plates and then incubated for 24 h. The alcoholic extract of F. cretica was then added into 96-well plates (three replicates) to achieve twelve concentrations. Six vehicle controls with media or 0.5% DMSO were run for each 96 well plate as a control. After incubating for 24 h, the number of viable cells was determined by the MTT test. Briefly, the media was removed from the 96 well plates and replaced with 100 µl of fresh culture RPMI 1640 medium without phenol red then 10 µl of the 12 mM MTT stock solution (5 mg of MTT in 1 ml of PBS) to each well including the untreated controls. […] Then, the optical density (OD) was measured at 590 nm with the microplate reader (SunRise, TECAN, Inc, USA) to determine the number of viable cells and the percentage of viability was calculated as follows: […]

[3] = tested on: Caspase-9 (human); experiment: Caspase-9 level ELISA in MCF-7
Procedure: To measure caspase-9 levels, DRG® Caspase-9 (human) ELISA (EIA-4860) kits were used. In brief, the breast cancer cell line (MCF-7) extracts were prepared after elevation of apoptosis. The extracts were suspended in lysis buffer, and incubated at room temperature for 60 min and then centrifuge for 15 min. The microwell strips were washed with 400 µl wash buffer, followed by addition of 100 µl of sample diluent in duplicate to all standard wells, 100 µl of sample diluent in duplicate to the blank wells, 50 µl of sample diluent to the sample, and 50 µl of each sample in duplicate to the sample wells. Then the detection antibody 50 µl was added to all wells and incubated for 2 h at room temperature. The diluted antirabbit-IgG-HRP (anti-rabbit-immunoglobulin G-horseradish peroxidase) 100 µl was added to all wells together with blank wells. TMB substrate solution 100 µl was added to all wells and incubated for 15 min. at room temperature. Finally, the enzyme reaction was stopped by adding 100 µl of the stop solution to all wells. The absorbance of each microwell was measured at 450 nm using a spectrophotometer. The absorbance of the samples and standard were recorded.

SMILES | IC50 [1] | IC50 [2] | Caspase-9 level induction ([3]; MCF-7) | Caspase-9 (Conc.) ([3]; breast human carcinoma cell line (MCF-7), control 2.986 ± 0.31)
O=C1O[C@H]([C@@H](O)CO)C(O)=C1O [Ascorbic acid] | 18.7 ± 0.77 µg/mL (≈ 106 µM) |  |  | 
COc1cccc2c1C(=O)c1c(O)c3c(c(O)c1C2=O)C[C@@](O)(C(=O)CO)C[C@@H]3O[C@H]1C[C@H](N)[C@H](O)[C@H](C)O1 [Doxorubicin] |  | 7.75 ± 0.4 µg/mL (≈ 14.3 µM) | 8.67 folds | 25.84 ± 0.39 ng/mL
